Results as given in publication PMC10938783, “A novel pan-PI3K inhibitor KTC1101 synergizes with anti-PD-1 therapy by targeting tumor suppression and immune activation” (Molecular Cancer, 2024).

Test system: B16 cells gene expression
Assay: RNA-Seq (DEGs, GSEA, heatmaps) of B16 cells
Details: KTC1101 0.2μM, B16 cells, GSEA KEGG

SMILES: COc1cc(N)cc2c1nc(C(F)F)n2-c1nc(N2CCCOCC2)nc(N2CCOCC2)n1 [KTC1101, 2-(difluoromethyl)-4-methoxy-1-(4-morpholino-6-(1,4-oxazepan-4-yl)-1,3,5-triazin-2-yl)-1H-benzo[d]imidazol-6-amine]
- NES, mmu04970 Salivary secretion: 1.144
- NES, mmu04972 Pancreatic secretion: 0.9417
- NES, mmu05017 Spinocerebellar ataxia: -1.093
- NES, mmu05031 Amphetamine addiction: 1.031
- NES, mmu05034 Alcoholism: 0.984
- NES, mmu05100 Bacterial invasion of epithelial cells: 0.6338
- NES, mmu05132 Salmonella infection: -1.08
- NES, mmu05133 Pertussis: 0.6182
- NES, mmu05134 Legionellosis: 1.026
- NES, mmu05135 Yersinia infection: 0.5197
- NES, mmu05145 Toxoplasmosis: 1.047
- NES, mmu05160 Hepatitis C: -0.848
- NES, mmu05162 Measles: 1.0518
- NES, mmu05165 Human papillomavirus infection: 0.8359
- NES, mmu05170 Human immunodeficiency virus 1 infection: 0.8557
- NES, mmu05200 Pathways in cancer: 1.059
- NES, mmu05203 Viral carcinogenesis: 0.855
- NES, mmu05204 Chemical carcinogenesis - DNA adducts: -1.166
- NES, mmu05206 MicroRNAs in cancer: 1.025
- NES, mmu05207 Chemical carcinogenesis - receptor activation: 0.9371
- NES, mmu05210 Colorectal cancer: 0.7382
- NES, mmu05211 Renal cell carcinoma: -0.9675
- NES, mmu05212 Pancreatic cancer: -0.9022
- NES, mmu05213 Endometrial cancer: -1.003
- NES, mmu05214 Glioma: 0.9787
- NES, mmu05216 Thyroid cancer: 0.6447
- NES, mmu05218 Melanoma: 1.185
- NES, mmu05219 Bladder cancer: 0.8356
- NES, mmu05220 Chronic myeloid leukemia: 0.9551
- NES, mmu05223 Non-small cell lung cancer: -0.8178
- NES, mmu05231 Choline metabolism in cancer: 1.119
- NES, mmu05235 PD-L1 expression and PD-1 checkpoint pathway in cancer: 0.9645
- NES, mmu05412 Arrhythmogenic right ventricular cardiomyopathy: 1.0322
- NES, mmu05416 Viral myocarditis: 0.9628
- NES, mmu05417 Lipid and atherosclerosis: 1.128
- enrichmentScore, mmu00071 Fatty acid degradation: 0.2512
- enrichmentScore, mmu00310 Lysine degradation: -0.1985
- enrichmentScore, mmu00380 Tryptophan metabolism: 0.4505
- enrichmentScore, mmu00500 Starch and sucrose metabolism: -0.3977
- enrichmentScore, mmu00510 N-Glycan biosynthesis: -0.1868
- enrichmentScore, mmu00513 Various types of N-glycan biosynthesis: 0.3555
- enrichmentScore, mmu00514 Other types of O-glycan biosynthesis: 0.426
- enrichmentScore, mmu00562 Inositol phosphate metabolism: -0.271
- enrichmentScore, mmu00564 Glycerophospholipid metabolism: -0.1904
- enrichmentScore, mmu00600 Sphingolipid metabolism: -0.2721
- enrichmentScore, mmu00860 Porphyrin metabolism: -0.354
- enrichmentScore, mmu00980 Metabolism of xenobiotics by cytochrome P450: -0.3932
- enrichmentScore, mmu00982 Drug metabolism - cytochrome P450: -0.394
- enrichmentScore, mmu01250 Biosynthesis of nucleotide sugars: -0.3381
- enrichmentScore, mmu01522 Endocrine resistance: 0.2781
- enrichmentScore, mmu01523 Antifolate resistance: -0.26
- enrichmentScore, mmu02010 ABC transporters: -0.2376
- enrichmentScore, mmu03008 Ribosome biogenesis in eukaryotes: 0.1194
- enrichmentScore, mmu03015 mRNA surveillance pathway: -0.1312
- enrichmentScore, mmu03018 RNA degradation: -0.2392
- enrichmentScore, mmu03022 Basal transcription factors: -0.1746
- enrichmentScore, mmu03040 Spliceosome: -0.1926
- enrichmentScore, mmu03060 Protein export: -0.3667
- enrichmentScore, mmu03082 ATP-dependent chromatin remodeling: 0.1455
- enrichmentScore, mmu03083 Polycomb repressive complex: 0.08375
- enrichmentScore, mmu03250 Viral life cycle - HIV-1: -0.1606
- enrichmentScore, mmu03410 Base excision repair: 0.1698
- enrichmentScore, mmu03420 Nucleotide excision repair: -0.1542
- enrichmentScore, mmu03430 Mismatch repair: -0.1664
- enrichmentScore, mmu03460 Fanconi anemia pathway: -0.2915
- enrichmentScore, mmu04014 Ras signaling pathway: -0.2302
- enrichmentScore, mmu04068 FoxO signaling pathway: 0.2292
- enrichmentScore, mmu04070 Phosphatidylinositol signaling system: -0.1821
- enrichmentScore, mmu04071 Sphingolipid signaling pathway: -0.1806
- enrichmentScore, mmu04115 p53 signaling pathway: 0.2436
- enrichmentScore, mmu04120 Ubiquitin mediated proteolysis: -0.1841
- enrichmentScore, mmu04130 SNARE interactions in vesicular transport: -0.1753
- enrichmentScore, mmu04136 Autophagy - other: 0.2123
- enrichmentScore, mmu04137 Mitophagy - animal: -0.2835
- enrichmentScore, mmu04140 Autophagy - animal: -0.2
- enrichmentScore, mmu04144 Endocytosis: 0.1533
- enrichmentScore, mmu04146 Peroxisome: 0.2695
- enrichmentScore, mmu04148 Efferocytosis: 0.2467
- enrichmentScore, mmu04150 mTOR signaling pathway: -0.2361
- enrichmentScore, mmu04152 AMPK signaling pathway: -0.2382
- enrichmentScore, mmu04210 Apoptosis: 0.1949
